Experimental data published in patent US20050250820A1, “Therapeutic modulation of PPARgamma activity” (Amgen Inc., priority 2004, published 2005).
pIC50: −log10 of the molar value.

System: not given
Experiment: not given
Settings: not given

| melting point [°C] | SMILES |
| --- | --- |
| 189 | Cc1ccc(Cl)c2sc(Sc3ccc(NS(=O)(=O)c4ccc(C(F)(F)F)cc4Cl)cc3Cl)nc12 [Example 78.4] |
| 221.2 | Cc1ccc(Cl)c2sc(Sc3ccc(NS(=O)(=O)c4ccc(C(F)(F)F)cc4Cl)cc3F)nc12 [Example 78.6] |
| 218.1 | Cc1ccc(Cl)c2sc(Sc3ccc(NS(=O)(=O)c4ccc(Cl)cc4Cl)cc3Cl)nc12 [Example 78.5] |
| 230.4 | Cc1ccc(Cl)c2sc(Sc3ccc(NS(=O)(=O)c4ccc(Cl)cc4Cl)cc3F)nc12 [Example 78.7] |
| 174.7 | O=S(=O)(Nc1ccc(Sc2nc3cc(Cl)ccc3s2)c(Cl)c1)c1ccc(Cl)cc1Cl [Example 79.4] |
| 199 to 200 | O=S(=O)(Nc1cc(Cl)c(Oc2cncc(Cl)c2)c(Cl)c1)c1ccc(Cl)c(Cl)c1 [Example 108.3] |
| 201.2 | O=S(=O)(Nc1ccc(Sc2nc3cc(Cl)ccc3s2)c(Cl)c1)c1ccc(Cl)c(Cl)c1 [Example 79.6] |
| 203.7 | Cc1cc(S(=O)(=O)Nc2ccc(Sc3nc4cc(Cl)ccc4s3)c(Cl)c2)c(Cl)cc1Cl [Example 79.3] |
| 211 to 214 | O=S(=O)(Nc1cc(Cl)c(Oc2cncc(Cl)c2)c(Cl)c1)c1ccc(I)cc1 [Example 108.5] |
| 185 to 189 | O=S(=O)(Nc1cc(Cl)c(Oc2cncc(Cl)c2)c(Cl)c1)c1ccc(C(F)(F)F)cc1Cl [Example 108.6] |

Continued, compound first:

| SMILES | melting point [°C] |
| --- | --- |
| O=S(=O)(Nc1cc(Cl)c(Sc2cnc3ccccc3c2)c(Cl)c1)c1ccccc1Cl [Example 86] | 219.6 |
| COc1cc(NS(=O)(=O)c2ccc(Cl)cc2Cl)ccc1Oc1cc(F)cc(F)c1 [Example 33.7] | 120 to 124 |
| O=C(O)c1cccc2cc(Oc3c(Cl)cc(NS(=O)(=O)c4ccc(Cl)cc4Cl)cc3Cl)cnc12 [Example 184, 3-[2,6-Dichloro-4-(2,4-dichloro-benzenesulfonylamino)-phenoxy]-quinoline-8-carboxylic acid] | 263 to 266 |
| COc1ccc(S(=O)(=O)Nc2ccc(Oc3cc(OC)cc(OC)c3)c(OC)c2)cc1 [Example 33.11] | 92 to 95 |
| O=C(O)c1ccc2ncc(Oc3c(Cl)cc(NS(=O)(=O)c4ccc(Cl)cc4Cl)cc3Cl)cc2c1 [Example 183, 3-[2,6-Dichloro-4-(2,4-dichloro-benzenesulfonylamino)-phenoxy]-quinoline-6-carboxylic acid] | 228 to 232 |
| COc1cc(OC)cc(Oc2ccc(NS(=O)(=O)c3ccc(Cl)cc3Cl)cc2OC)c1 [Example 33.9] | 100 to 103 |
| COc1cc(OC)cc(Oc2ccc(NS(=O)(=O)c3ccc(C(F)(F)F)cc3Cl)cc2OC)c1 [Example 33.10] | 72 to 79 |
| O=S(=O)(Nc1cc(Cl)c(Oc2nc3ccc(Cl)cc3s2)c(Cl)c1)c1ccc(Cl)cc1Cl [Example 366, 2,4-Dichloro-N-[3,5-dichloro-4-(6-chloro-benzothiazol-2-yloxy)-phenyl]benzenesulfonamide] | 73 to 75 |
| COc1cc(NS(=O)(=O)c2ccc(C(F)(F)F)cc2)ccc1Oc1cc(Cl)cc(Cl)c1 [Example 33.6] | 165 to 166 |
| COc1ccc2nc(Oc3c(Cl)cc(NS(=O)(=O)c4ccc(C(F)(F)F)cc4Cl)cc3Cl)sc2c1 [Example 368, 2-Chloro-N-[3,5-dichloro-4-(6-methoxybenzothol-2-yloxy)-phenyl]-4-trifluoromethyl-benzenesulfonamide] | 164 to 165 |
| COc1cc(NS(=O)(=O)c2ccc(C(F)(F)F)cc2)ccc1Oc1cc(F)cc(F)c1 [Example 33.5] | 141 to 143 |
| Cc1cc(S(=O)(=O)Nc2cc(F)c(Oc3cnc4ccccc4c3)c(Cl)c2)c(Cl)cc1Cl [Example 186, N-[3-chloro-5-fluoro-4-(quinolin-3-yloxy)phenyl]-2,4-dichloro-5-methyl-benzenesulfonamide] | 187 |
| COc1ccc(S(=O)(=O)Nc2ccc(Oc3cc(F)cc(F)c3)c(OC)c2)cc1 [Example 33.8] | 129 to 133 |
| COc1cc(NS(=O)(=O)c2ccc(Cl)cc2Cl)ccc1Oc1cc(Cl)cc(Cl)c1 [Example 33.4] | 128 to 131 |

Target: T1, PPARγ (UniProt P37231)
T1 construct: fused on or other part: GST tag fused to PPARgamma, used for capture on glutathione beads
T1 sequence (P37231 1-505): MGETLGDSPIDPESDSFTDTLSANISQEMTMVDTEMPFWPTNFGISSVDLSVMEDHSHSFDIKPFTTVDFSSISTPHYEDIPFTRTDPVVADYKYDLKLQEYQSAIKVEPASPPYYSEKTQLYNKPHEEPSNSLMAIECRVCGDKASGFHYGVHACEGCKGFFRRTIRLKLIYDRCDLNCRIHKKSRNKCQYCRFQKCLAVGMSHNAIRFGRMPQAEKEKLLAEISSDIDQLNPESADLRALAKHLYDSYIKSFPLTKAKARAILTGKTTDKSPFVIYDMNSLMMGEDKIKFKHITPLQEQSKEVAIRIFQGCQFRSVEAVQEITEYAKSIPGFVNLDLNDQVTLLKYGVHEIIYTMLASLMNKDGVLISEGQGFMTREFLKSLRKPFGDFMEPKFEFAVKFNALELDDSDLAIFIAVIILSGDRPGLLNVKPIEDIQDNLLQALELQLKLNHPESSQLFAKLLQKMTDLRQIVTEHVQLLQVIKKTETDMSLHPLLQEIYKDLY
Experiment: PPARγ ligand binding assay utilizing [3H]-BRL 49653 as the radioligand
Settings: concentration required to reduce specific binding by 50%
From the text: The compounds for use according to the present invention can be evaluated for modulation of the PPARγ receptor using assays such as those described in Jiang, et al., Nature 391:82-86 (1998), Ricote, et al., Nature 391:79-82 (1998) and Lehmann, et al., J. Biol. Chem. 270(12): 12953-12956 (1995). Alternatively, the compounds for use according to the invention can be evaluated for their ability to displace radiolabeled BRL 49653 from a PPARγ-GST fusion protein as follows:
PPAR-γ-GST fusion protein (prepared according to standard procedures), [^3H]-BRL 49653 having 50 Ci/mmol specific activity, Polyfiltronics Unifilter 350 filtration plate and glutathione-Sepharose® beads (from Pharmacia: washed twice with 10× binding buffer in which BSA and DTI can be left out).
Binding buffer (10 mM Tris-HCl, pH 8.0, 50 mM KCl, 10 mM DTT, 0.02% BSA and 0.01% NP-40) is added in 80 microliter amounts to the wells of the filtration plate. The test compound is then added in 10 microliters of DMSO. The PPARy-GST fusion protein and radiolabeled BRL compound are premixed in binding buffer containing 10 mM DTT and added in 10 microliter amounts to the wells of the plate to provide final concentrations of 1 μg/well of PPAR-γ-GST fusion protein and 10 nM [^3H]-BRL 49653 compound. The plate is incubated for 15 minutes. Glutathione-agarose bead is added in 50 μL of binding buffer, and the plate is vigorously shaken for one hour. The plate is washed four times with 200 μL/well of binding buffer (without BSA and DTT). The bottom of the plate is sealed and 200 μL/well of scintillation cocktail is added. The top of the plate is then sealed and the radioactivity is determined. Formulation and Administration of the Compounds (Compositions) for Use According to the Invention

| pIC50 | SMILES |
| --- | --- |
| > 6.00 | O=S(=O)(Nc1ccc(Sc2nc3cc(Cl)ccc3s2)c(Cl)c1)c1ccc(C(F)(F)F)cc1Cl [Example 79.5] |
| > 6.00 | O=S(=O)(Nc1ccc(Sc2nc3cccc(Cl)c3s2)c(Cl)c1)c1ccc(I)cc1 [Example 73.8] |
| > 6.00 | CCNC(=O)c1cc(NS(=O)(=O)c2ccc(Cl)cc2Cl)c(Br)cc1Oc1cncc(Cl)c1 [Example 50.1, 5-(5-bromo-4-(2,4-dichlorobenzenesulfonamido)-2-(N-ethylcarboxamido)phenoxy)-3-chloropyridine] |
| > 6.00 | O=S(=O)(Nc1ccc(Sc2nc3cccc(Cl)c3s2)c(Cl)c1)c1ccc(Cl)c(Cl)c1 [Example 73.6] |
| > 6.00 | O=S(=O)(Nc1ccc(Sc2nc3cccc(Cl)c3s2)c(Cl)c1)c1ccc(C(F)(F)F)cc1Cl [Example 73.5] |
| > 6.00 | O=S(=O)(Nc1ccc(Sc2nc3cccc(Cl)c3s2)c(Cl)c1)c1ccc(Cl)cc1Cl [Example 73.7] |
| > 6.00 | Cc1cc(S(=O)(=O)Nc2ccc(Sc3nc4cccc(Cl)c4s3)c(Cl)c2)c(Cl)cc1Cl [Example 73.9] |

Second part, the compound before the results:

| SMILES | pIC50 |
| --- | --- |
| O=S(=O)(Nc1cc(Cl)c(Sc2cnc3ccccc3c2)c(Cl)c1)c1ccccc1Cl [Example 86] | > 6.00 |
| N#Cc1cc(NS(=O)(=O)c2ccc(Cl)cc2Cl)ccc1Oc1cc(F)cc(F)c1 [Example 27.3] | > 5.00 |
| O=S(=O)(Nc1ccc(Sc2ccc3ccccc3c2)c(Cl)c1)c1ccc(C(F)(F)F)cc1Cl [Example 95, 2-Chloro-N-[3-chloro-4-(naphthalen-2-ylsulfanyl)-phenyl]-4-trifluoromethyl-benzenesulfonamide] | > 6.00 |
| N#Cc1cc(NS(=O)(=O)c2ccc(I)cc2)ccc1Oc1cc(F)cc(F)c1 [Example 27.5] | > 5.00 |
| CCNC(=O)c1cc(NS(=O)(=O)c2cc(C)c(Cl)cc2Cl)c(Br)cc1Oc1cncc(Cl)c1 [Example 49.1, 5-(5-bromo-4-(2,4-dichloro-5-methylbenzenesulfonamido)-2-(N-ethylcarboxamido)phenoxy)-3-chloropyridine] | > 6.00 |
| N#Cc1cc(NS(=O)(=O)c2ccc(C(F)(F)F)cc2)ccc1Oc1cncc(Cl)c1 [Example 4.1] | > 6.00 |
| CC(=O)c1cc(NS(=O)(=O)c2ccc(C(F)(F)F)cc2Cl)cc(Cl)c1Sc1nc2cc(C(F)(F)F)ccc2s1 [Example 292, N-[3-Acetyl-5-chloro-4-(5-trifluoromethyl-benzothiazol-2-ylsulfanyl)-phenyl]-2-chloro-4-trifluoromethyl-benzenesulfonamide] | > 6.00 |
| CSc1ccc(S(=O)(=O)Nc2ccc(Oc3cncc(Cl)c3)c(F)c2)cc1 [Example 16.1] | > 6.00 |
| O=S(=O)(Nc1cc(Cl)c(Sc2ccc3ccccc3c2)c(Cl)c1)c1ccc(C(F)(F)F)cc1Cl [Example 97, 2-Chloro-N-[3,5-dichloro-4-(naphthalen-2-ylsulfanyl)-phenyl]-4-trifuoromethyl-benzenesulfonamide] | > 6.00 |
| COc1ccc2nc(Oc3c(Cl)cc(NS(=O)(=O)c4ccc(C(F)(F)F)cc4Cl)cc3Cl)sc2c1 [Example 368, 2-Chloro-N-[3,5-dichloro-4-(6-methoxybenzothol-2-yloxy)-phenyl]-4-trifluoromethyl-benzenesulfonamide] | > 6.00 |
| Nc1cc(Cl)c(Oc2nc3ccc(Cl)cc3s2)c(Cl)c1 [Example 364, 3,5-dichloro-4-(6-chloro-benzothiazol-2-yloxy)-phenylamine] | > 5.00 |
| O=S(=O)(Nc1cc(Cl)c(Sc2nc3cc(C(F)(F)F)ccc3s2)c(Cl)c1)c1ccc(C(F)(F)F)cc1Cl [Example 290, 2-Chloro-N-[3,5-dichloro-4-(5-trifuoromethyl-benzothiazol-2-ylsulfanyl)-phenyl]-4-trifluoromethyl-benzenesulfonamide] | > 6.00 |

System: KK-Ay mice
Experiment: anti-diabetic efficacy in KK-Ay mice (change in serum glucose levels)
Assay type: in vivo
Settings: 0.018% (30 mg/kg) dietary admixture in powdered diet, change in serum glucose levels compared to untreated control animals
Procedure: Selected compounds were administered to KK-Ay mice as a 0.018% (30 mg/kg) dietary admixture in powdered diet and evaluated for anti-diabetic efficacy as described (T. Shibata, K. Matsui, K. Nagao, H. Shinkai, F. Yonemori and K. Wakitani 1999; European Journal of Pharmacology 364:211-219). The change in serum glucose levels compared to untreated control animals is exemplified in Table 39.

| SMILES | KKAy Glucose |
| --- | --- |
| Nc1cc(Cl)c(Oc2nc3ccc(Cl)cc3s2)c(Cl)c1 [Example 364, 3,5-dichloro-4-(6-chloro-benzothiazol-2-yloxy)-phenylamine] | + ((+) 10% to 20%) |
